In patent US20260013504A1, “HERBICIDAL MIXTURE, HERBICIDAL COMPOSITION, METHOD, USE, AND KITS FOR CONTROLLING UNDESIRABLE VEGETATION” (ADAMA AGAN LTD., priority 2022, published 2026):

Experiments:
Format in all cases: in vivo
Solanum nigrum = test: Pot experiment (glass greenhouse), soil treatment, control of Solanum nigrum (fresh weight, Colby)
Procedure: (§1) Referring to an article of Colby, S. R. i.e., Calculation of the synergistic and antagonistic response of herbicide combinations.
(§2) E0-E value is calculated to evaluate the combined effect of pyroxasulfone and the second herbicide selected from the group consisting of fluorochloridone, aclonifen, diflufenican and terbutryn on the selected weeds.
(§3) In this Example, the herbicidal activity of treatments by a mixture of pyroxasulfone and the second herbicide selected from the group consisting of fluorochloridone, aclonifen, diflufenican and terbutryn for controlling Aegilops tauschii was investigated by a pot experiment. This Example was carried out in accordance with “NY/T 1155.4-2006 Guidelines for Indoor Bioassay Tests of Pesticides, Herbicides Part 4: Activity Determination Tests, Stem and Leaf Spray Method”. • Source of the agrochemicals tested were: • Pyroxasulfone: pyroxasulfone (850g/Kg, WG) from Adama Agan LTD. • Fluorochloridone: fluorochloridone (250 g/L, EC) from Adama Agan LTD. • Aclonifen: aclonifen (600 g/L, SC) from Adama Agan LTD. • Diflufenican: diflufenican (50g/Kg, WP) from Bayer. • Terbutryn: terbutryn (50g/Kg, SC) from Zhejiang Zhongshan Chemical Industry Group Co., Ltd. • Cultivation of test materials: The test soil was formed by mixing the 20 cm layer loam on the ground surface and the culture medium in a ratio of 3:1 as cultivation soil. Weeds were cultivated in an artificial climate chamber. The daytime and nighttime temperatures were set at 22° C. and 19° C., respectively, and the illumination was set at daytime: dark time 12h: 12h.
(§4) A certain amount of Aegilops tauschii seeds were sown in a plastic pot with a diameter of 9 cm, covering with 1-2 mm soil, and putting them in an enamel dish filled with water. The bottom infiltration method was used to water them, the agrochemicals tested in this Example were applied on the second day after sowing Aegilops tauschii seeds.
(§5) Spraying treatment: ASS-4 automatic control spraying system with a fan-shaped nozzle was used indoors to spray the agrochemicals, the running speed was adjusted based on nozzle pressure, flow rate, etc. to spray 50 mL of liquid of agrochemicals on the actual spray area of 1.1 m2 (equivalent to 30 liters per mu), arranging the plastic pots to be processed on the spraying table evenly, and spraying evenly. The spraying pressure was 0.35 MPa, and the flow rate of the fan-shaped nozzle was 800 mL/min, spraying in order from low dosage to high dosage. Each treatment was repeated 3 times. After spraying, the plastic pots were dried for one day, placed in an artificial climate chamber, and watered regularly to keep moist.
(§6) Weed investigation method and time: after applying the agrochemicals, the symptoms of weed damage (such as growth inhibition, chlorosis, deformity, etc.) were recorded in detail. After 35 days, the fresh weight of aerial part of the weeds in each treatment was weighed, and the measured fresh weight inhibition rate and the measured fresh weight survival rate for each treatment were calculated according to the following equations: […]
Example 6 was substantially conducted in the same as Example 1, except that (1) Solanum nigrum was used instead of Aegilops tauschii, (2) in “Cultivation of test materials” part, Solanum nigrum was cultivated in a glass greenhouse instead of an artificial climate chamber at a temperature of 25 to 33° C. with a natural illumination, and (3) in “Spraying treatment” part, after spraying and drying, the plastic pots were placed in a glass greenhouse instead of an artificial climate chamber.

Bromus japonicus = test: Pot experiment, soil treatment, control of Bromus japonicus (fresh weight, Colby); conditions: mixtures: both AIs at these rates, after 35 days
Procedure: as §1, §2, §3, §4, §5, §6
Example 3 was conducted in substantially the same way as Example 1, except that Bromus japonicus was used instead of Aegilops tauschii.

Aegilops tauschii = test: Pot experiment, soil treatment, control of Aegilops tauschii (fresh weight, Colby); conditions: mixtures: both AIs at these rates, after 35 days
From the text: as §1
E0 is the theoretical fresh weight survival rate for the mixture of pyroxasulfone and the second herbicide selected from the group consisting of fluorochloridone, aclonifen, diflufenican and terbutryn;
X is the measured fresh weight survival rate for pyroxasulfone used alone at the same dosage as that in the mixture;
Y is the measured fresh weight survival rate for the second herbicide selected from the group consisting of fluorochloridone, aclonifen, diflufenican and terbutryn used alone at the same dosage as that in the mixture;
E is the measured fresh weight survival rate for the mixture of pyroxasulfone and the second herbicide selected from the group consisting of fluorochloridone, aclonifen, diflufenican and terbutryn.
as §2, §3, §4, §5, §6

Lolium multiflorum Lamk = test: Pot experiment, soil treatment, control of Lolium multiflorum Lamk (fresh weight, Colby); conditions: mixtures: both AIs at these rates, after 35 days
Procedure: as §1, §2, §3, §4, §5, §6
Example 2 was conducted in substantially the same way as Example 1, except that Lolium multiflorum Lamk was used instead of Aegilops tauschii.

Lithospermum arvense = test: Pot experiment, soil treatment, control of Lithospermum arvense (fresh weight, Colby)
Procedure: as §1, §2, §3, §4, §5, §6
Example 5 was conducted substantially the same way as Example 1, except that Lithospermum arvense was used instead of Aegilops tauschii.

Galium aparine = test: Pot experiment, soil treatment, control of Galium aparine (fresh weight, Colby)
Procedure: as §1, §2, §3, §4, §5, §6
Example 4 was conducted substantially the same way as Example 1, except that Galium aparine was used instead of Aegilops tauschii.

[1] = g ai/ha: pyroxasulfone 11.25, fluorochloridone 31.25, aclonifen 150, diflufenican 14.0625, terbutryn 140.625
[2] = g ai/ha: pyroxasulfone 22.5, fluorochloridone 62.5, aclonifen 300, diflufenican 28.125, terbutryn 281.25
[3] = g ai/ha: pyroxasulfone 45, fluorochloridone 125, aclonifen 600, diflufenican 56.25, terbutryn 562.5
[4] = g ai/ha: pyroxasulfone 90, fluorochloridone 250, aclonifen 1200, diflufenican 112.5, terbutryn 1125
[5] = g ai/ha: pyroxasulfone 180, fluorochloridone 500, aclonifen 2400, diflufenican 225, terbutryn 2250
[6] = g ai/ha: pyroxasulfone 360, fluorochloridone 1000, aclonifen 4800, diflufenican 450, terbutryn 4500

SMILES: O=C(Nc1ccc(F)cc1F)c1cccnc1Oc1cccc(C(F)(F)F)c1 [diflufenican, N-(2,4-difluorophenyl)-2-(3-(trifluoromethyl)phenoxy)-3-pyridinecarboxamide]
- Measured fresh weight survival rate (%) - E (Solanum nigrum; 14.0625 g ai/ha): 94.1%
- Measured fresh weight survival rate (%) - E (Solanum nigrum; 28.125 g ai/ha): 90.2%
- Measured fresh weight survival rate (%) - E (Solanum nigrum; 56.25 g ai/ha): 79.2%
- Measured fresh weight survival rate (%) - E (Solanum nigrum; 112.5 g ai/ha): 71.8%
- Measured fresh weight survival rate (%) - E (Solanum nigrum; 225 g ai/ha): 63.5%
- inhibition at 14.0625 g/ha (Solanum nigrum; Solanum nigrum, soil, 14.0625 g ai/ha, read-out: Measured fresh weight inhibition rate (%)): 5.9%
- inhibition at 28.125 g/ha (Solanum nigrum; Solanum nigrum, soil, 28.125 g ai/ha, read-out: Measured fresh weight inhibition rate (%)): 9.8%
- inhibition at 56.25 g/ha (Solanum nigrum; Solanum nigrum, soil, 56.25 g ai/ha, read-out: Measured fresh weight inhibition rate (%)): 20.8%
- inhibition at 112.5 g/ha (Solanum nigrum; Solanum nigrum, soil, 112.5 g ai/ha, read-out: Measured fresh weight inhibition rate (%)): 28.2%
- inhibition at 225 g/ha (Solanum nigrum; Solanum nigrum, soil, 225 g ai/ha, read-out: Measured fresh weight inhibition rate (%)): 36.5%
- Measured fresh weight inhibition rate (%) (Bromus japonicus; [1]): 59.8%
- Measured fresh weight survival rate (%) - E (Bromus japonicus; [1]): 40.2%
- Measured fresh weight inhibition rate (%) (Bromus japonicus; [2]): 73.2%
- Measured fresh weight survival rate (%) - E (Bromus japonicus; [2]): 26.8%
- Measured fresh weight inhibition rate (%) (Bromus japonicus; [3]): 80.4%
- Measured fresh weight survival rate (%) - E (Bromus japonicus; [3]): 19.6%
- Measured fresh weight inhibition rate (%) (Bromus japonicus; [4]): 95.9%
- Measured fresh weight survival rate (%) - E (Bromus japonicus; [4]): 4.1%
- Measured fresh weight inhibition rate (%) (Bromus japonicus; [5]): 100.0%
- Measured fresh weight survival rate (%) - E (Bromus japonicus; [5]): 0.0%
- Measured fresh weight inhibition rate (%) (Aegilops tauschii; [1]): 3.7%
- Measured fresh weight survival rate (%) - E (Aegilops tauschii; [1]): 96.3%
- Measured fresh weight inhibition rate (%) (Aegilops tauschii; [2]): 6.7%
- Measured fresh weight survival rate (%) - E (Aegilops tauschii; [2]): 93.3%
- Measured fresh weight inhibition rate (%) (Aegilops tauschii; [3]): 4.3%
- Measured fresh weight survival rate (%) - E (Aegilops tauschii; [3]): 95.7%
- Measured fresh weight inhibition rate (%) (Aegilops tauschii; [4]): 6.7%
- Measured fresh weight survival rate (%) - E (Aegilops tauschii; [4]): 93.3%
- Measured fresh weight inhibition rate (%) (Aegilops tauschii; [5]): 10.4%
- Measured fresh weight survival rate (%) - E (Aegilops tauschii; [5]): 89.6%
- Measured fresh weight inhibition rate (%) (Aegilops tauschii; [6]): 37.2%
- Measured fresh weight survival rate (%) - E (Aegilops tauschii; [6]): 62.8%
- Measured fresh weight inhibition rate (%) (Lolium multiflorum Lamk; [1]): 87.0%
- Measured fresh weight survival rate (%) - E (Lolium multiflorum Lamk; [1]): 13.0%
- Measured fresh weight inhibition rate (%) (Lolium multiflorum Lamk; [2]): 88.0%
- Measured fresh weight survival rate (%) - E (Lolium multiflorum Lamk; [2]): 12.0%
- Measured fresh weight inhibition rate (%) (Lolium multiflorum Lamk; [3]): 93.2%
- Measured fresh weight survival rate (%) - E (Lolium multiflorum Lamk; [3]): 6.8%
- Measured fresh weight inhibition rate (%) (Lolium multiflorum Lamk; [4]): 99.5%
- Measured fresh weight survival rate (%) - E (Lolium multiflorum Lamk; [4]): 0.5%
- Measured fresh weight inhibition rate (%) (Lolium multiflorum Lamk; [5]): 100.0%
- Measured fresh weight survival rate (%) - E (Lolium multiflorum Lamk; [5]): 0.0%
- Measured fresh weight inhibition rate (%) (Lolium multiflorum Lamk; [6]): 100.0%
- Measured fresh weight survival rate (%) - E (Lolium multiflorum Lamk; [6]): 0.0%
- Measured fresh weight survival rate (%) - E (Lithospermum arvense; 14.0625 g ai/ha): 33.3%
- Measured fresh weight survival rate (%) - E (Lithospermum arvense; 28.125 g ai/ha): 17.4%
- Measured fresh weight survival rate (%) - E (Lithospermum arvense; 56.25 g ai/ha): 15.9%
- Measured fresh weight survival rate (%) - E (Lithospermum arvense; 112.5 g ai/ha): 1.4%
- Measured fresh weight survival rate (%) - E (Lithospermum arvense; 225 g ai/ha): 0.0%
- inhibition at 14.0625 g/ha (Lithospermum arvense; Buglossoides arvensis, soil, 14.0625 g ai/ha, read-out: Measured fresh weight inhibition rate (%)): 66.7%
- inhibition at 28.125 g/ha (Lithospermum arvense; Buglossoides arvensis, soil, 28.125 g ai/ha, read-out: Measured fresh weight inhibition rate (%)): 82.6%
- inhibition at 56.25 g/ha (Lithospermum arvense; Buglossoides arvensis, soil, 56.25 g ai/ha, read-out: Measured fresh weight inhibition rate (%)): 84.1%
- inhibition at 112.5 g/ha (Lithospermum arvense; Buglossoides arvensis, soil, 112.5 g ai/ha, read-out: Measured fresh weight inhibition rate (%)): 98.6%
- inhibition at 225 g/ha (Lithospermum arvense; Buglossoides arvensis, soil, 225 g ai/ha, read-out: Measured fresh weight inhibition rate (%)): 100%
- Measured fresh weight survival rate (%) - E (Galium aparine; 14.0625 g ai/ha): 38.4%
- Measured fresh weight survival rate (%) - E (Galium aparine; 28.125 g ai/ha): 27.4%
- Measured fresh weight survival rate (%) - E (Galium aparine; 56.25 g ai/ha): 26.0%
- Measured fresh weight survival rate (%) - E (Galium aparine; 112.5 g ai/ha): 15.1%
- Measured fresh weight survival rate (%) - E (Galium aparine; 225 g ai/ha): 1.4%
- inhibition at 14.0625 g/ha (Galium aparine; Galium aparine, soil, 14.0625 g ai/ha, read-out: Measured fresh weight inhibition rate (%)): 61.6%
- inhibition at 28.125 g/ha (Galium aparine; Galium aparine, soil, 28.125 g ai/ha, read-out: Measured fresh weight inhibition rate (%)): 72.6%
- inhibition at 56.25 g/ha (Galium aparine; Galium aparine, soil, 56.25 g ai/ha, read-out: Measured fresh weight inhibition rate (%)): 74%
- inhibition at 112.5 g/ha (Galium aparine; Galium aparine, soil, 112.5 g ai/ha, read-out: Measured fresh weight inhibition rate (%)): 84.9%
- inhibition at 225 g/ha (Galium aparine; Galium aparine, soil, 225 g ai/ha, read-out: Measured fresh weight inhibition rate (%)): 98.6%
